The record followed here is ChEMBL document CHEMBL1153778, “Contact-active microbicidal gold surfaces using immobilization of quaternary ammonium thiol derivatives” (2009).

Type in all cases: functional
Assay [1] has as its system Staphylococcus aureus. In words: Antimicrobial activity against Staphylococcus aureus ATCC 6538 on gold coated surface assessed as log reduction of colony forming units after 4 hrs.
Assay [2] relates to Staphylococcus aureus. The experiment in a line: Antimicrobial activity against Staphylococcus aureus ATCC 6538 on gold coated surface assessed as bactericidal efficiency after 4 hrs.
The test system of assay [3] is Staphylococcus aureus. In words: Antimicrobial activity against Staphylococcus aureus ATCC 6538 on gold coated surface assessed as log reduction of colony forming units after 24 hrs.

In the case of `CCCCCCCCCC[N+](C)(C)CCCNC(=O)CCCCCCCCCCS.[Cl-]`, the Activity with Staphylococcus aureus [1] was determined as 0.39; in the assay on Staphylococcus aureus [2], 67; with Staphylococcus aureus [3] it was 0.
For `C[N+](C)(C)CCCCCCCCCCCS.[Cl-]` the same measures were 0.14, 30 and 0.
For `CCCCCCCCCC[N+](C)(C)CCCCCCCCCCCS.[Cl-]` the same measures were 0.31, 51 and 0.
As for `CCCCCCCCCCCCCC[N+](C)(C)CCCNC(=O)CCCCCCCCCCS.[Cl-]`, the Activity with Staphylococcus aureus [1] turned out to be 0.14; in the assay on Staphylococcus aureus [2] it was 30; with Staphylococcus aureus [3], 0.
The corresponding values for `C[N+](C)(CCCNC(=O)CCCCCCCCCCS)Cc1ccccc1.[Cl-]` are 0, 0 and 0.
As to `CCCCCCCCCCCC[N+](C)(C)CCCCCCCCCCCS.[Cl-]`, the values for the Activity in the assay with Staphylococcus aureus [1], with Staphylococcus aureus [2] and in the assay on Staphylococcus aureus [3] were 0.31, 51 and 0, respectively.
The corresponding values for `CCCCCCCCCCCCCC[N+](C)(C)CCCCCCCCCCCS.[Cl-]` are 0, 0 and 0.
For `C[N+](C)(C)CCCNC(=O)CCCCCCCCCCS.[Cl-]` the same measures were 0.14, 30 and 0.
For `CCCCCCCCCCCC[N+](C)(C)CCCNC(=O)CCCCCCCCCCS.[Cl-]` the same measures were 0.31, 51 and 0.
In the case of `C[N+](C)(CCCCCCCCCCCS)Cc1ccccc1.[Cl-]`, the Activity with Staphylococcus aureus [1] was found to be 0.14; in the assay on Staphylococcus aureus [2] it was 30; in the assay with Staphylococcus aureus [3] it was 0.
